Results published in article PMC11842588, “A first-in-class selective inhibitor of ERK1/2 and ERK5 overcomes drug resistance with a single-molecule strategy” (Signal Transduction and Targeted Therapy, 2025).

How the values were obtained:
Assay in all cases: Kinase profiling
Type in all cases: biochemical
SAPK3(h) = molecular target: T1, SAPK3(h) (Homo sapiens, UniProt P53778)
T1 construct: purchased Eurofins Cerep SA (KinaseProfiler)
Procedure: (§1) 380 kinases inhibitory activities of SKLB-D18 were conducted by Eurofins Cerep SA. The result was illustrated by kinase tree (http://www.kinhub.org/kinmap/).

Rsk4(h) = molecular target: T2, Rsk4(h) (Homo sapiens, UniProt Q9UK32)
T2 construct: purchased Eurofins Cerep SA (KinaseProfiler)
Procedure: as §1

CRIK(h) = molecular target: T3, CRIK(h) (Homo sapiens, UniProt O14578)
T3 construct: purchased Eurofins Cerep SA (KinaseProfiler)
T3 sequence (O14578 whole entry): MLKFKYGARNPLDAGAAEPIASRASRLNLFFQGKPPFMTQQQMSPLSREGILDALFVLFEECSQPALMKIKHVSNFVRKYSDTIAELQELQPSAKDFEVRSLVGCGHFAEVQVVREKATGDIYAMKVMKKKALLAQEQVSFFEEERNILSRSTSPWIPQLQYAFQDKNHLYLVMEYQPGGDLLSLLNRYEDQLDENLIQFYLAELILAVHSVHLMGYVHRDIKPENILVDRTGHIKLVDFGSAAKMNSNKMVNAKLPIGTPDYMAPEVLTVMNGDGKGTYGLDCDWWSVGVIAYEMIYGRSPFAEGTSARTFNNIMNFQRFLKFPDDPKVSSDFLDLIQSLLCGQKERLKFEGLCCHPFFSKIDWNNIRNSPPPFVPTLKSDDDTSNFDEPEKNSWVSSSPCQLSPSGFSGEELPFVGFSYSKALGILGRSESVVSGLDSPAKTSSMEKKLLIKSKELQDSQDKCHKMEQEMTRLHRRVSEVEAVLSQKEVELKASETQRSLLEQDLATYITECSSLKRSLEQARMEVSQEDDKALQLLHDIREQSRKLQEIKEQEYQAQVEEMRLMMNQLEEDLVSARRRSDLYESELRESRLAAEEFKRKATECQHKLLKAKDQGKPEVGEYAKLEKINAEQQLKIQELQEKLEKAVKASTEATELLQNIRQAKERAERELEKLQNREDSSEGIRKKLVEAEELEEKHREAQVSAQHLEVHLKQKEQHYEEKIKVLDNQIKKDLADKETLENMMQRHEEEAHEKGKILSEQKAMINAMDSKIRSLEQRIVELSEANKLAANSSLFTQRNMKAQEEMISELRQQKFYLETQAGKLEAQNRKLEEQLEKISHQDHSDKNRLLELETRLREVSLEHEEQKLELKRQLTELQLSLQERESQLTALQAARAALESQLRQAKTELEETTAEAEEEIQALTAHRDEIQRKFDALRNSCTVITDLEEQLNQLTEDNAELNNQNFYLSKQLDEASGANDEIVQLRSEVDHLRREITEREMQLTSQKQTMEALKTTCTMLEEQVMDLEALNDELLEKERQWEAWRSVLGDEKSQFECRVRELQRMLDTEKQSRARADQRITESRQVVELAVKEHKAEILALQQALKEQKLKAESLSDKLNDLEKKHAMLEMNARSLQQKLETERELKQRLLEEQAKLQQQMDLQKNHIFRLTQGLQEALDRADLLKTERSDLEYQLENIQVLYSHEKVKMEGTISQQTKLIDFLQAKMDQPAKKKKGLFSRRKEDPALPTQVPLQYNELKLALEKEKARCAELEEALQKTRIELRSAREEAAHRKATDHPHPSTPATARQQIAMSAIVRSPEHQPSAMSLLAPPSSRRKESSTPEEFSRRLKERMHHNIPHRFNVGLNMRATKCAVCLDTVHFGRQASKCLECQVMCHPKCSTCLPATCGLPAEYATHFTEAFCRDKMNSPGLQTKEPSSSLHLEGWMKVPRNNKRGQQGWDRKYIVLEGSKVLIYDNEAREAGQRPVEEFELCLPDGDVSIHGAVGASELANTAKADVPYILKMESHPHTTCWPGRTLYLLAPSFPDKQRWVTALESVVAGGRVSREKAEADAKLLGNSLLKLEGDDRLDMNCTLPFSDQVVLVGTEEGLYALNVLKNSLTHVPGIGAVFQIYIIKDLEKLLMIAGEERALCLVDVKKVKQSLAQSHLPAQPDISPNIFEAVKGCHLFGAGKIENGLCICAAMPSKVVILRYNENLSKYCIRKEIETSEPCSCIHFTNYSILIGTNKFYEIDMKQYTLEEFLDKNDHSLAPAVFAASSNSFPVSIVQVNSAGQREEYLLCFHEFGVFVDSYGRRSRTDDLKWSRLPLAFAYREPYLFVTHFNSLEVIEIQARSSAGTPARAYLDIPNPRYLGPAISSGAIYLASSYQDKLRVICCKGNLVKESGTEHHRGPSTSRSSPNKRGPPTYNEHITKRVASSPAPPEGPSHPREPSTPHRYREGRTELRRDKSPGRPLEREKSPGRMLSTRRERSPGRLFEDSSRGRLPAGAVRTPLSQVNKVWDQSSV
Procedure: as §1

HIPK4(h) = molecular target: T4, HIPK4(h) (Homo sapiens, UniProt Q8NE63)
T4 construct: purchased Eurofins Cerep SA (KinaseProfiler)
Procedure: as §1

MLK4(h) = molecular target: T5, MLK4(h) (Homo sapiens, UniProt Q5TCX8)
T5 construct: purchased Eurofins Cerep SA (KinaseProfiler)
Procedure: as §1

PKCε(h) = molecular target: T6, PKCε(h) (Homo sapiens, UniProt Q02156)
T6 construct: purchased Eurofins Cerep SA (KinaseProfiler)
Procedure: as §1

p70S6Kβ(h) = molecular target: T7, p70S6Kβ(h) (Homo sapiens, UniProt Q9UBS0)
T7 construct: purchased Eurofins Cerep SA (KinaseProfiler)
T7 sequence (Q9UBS0 whole entry): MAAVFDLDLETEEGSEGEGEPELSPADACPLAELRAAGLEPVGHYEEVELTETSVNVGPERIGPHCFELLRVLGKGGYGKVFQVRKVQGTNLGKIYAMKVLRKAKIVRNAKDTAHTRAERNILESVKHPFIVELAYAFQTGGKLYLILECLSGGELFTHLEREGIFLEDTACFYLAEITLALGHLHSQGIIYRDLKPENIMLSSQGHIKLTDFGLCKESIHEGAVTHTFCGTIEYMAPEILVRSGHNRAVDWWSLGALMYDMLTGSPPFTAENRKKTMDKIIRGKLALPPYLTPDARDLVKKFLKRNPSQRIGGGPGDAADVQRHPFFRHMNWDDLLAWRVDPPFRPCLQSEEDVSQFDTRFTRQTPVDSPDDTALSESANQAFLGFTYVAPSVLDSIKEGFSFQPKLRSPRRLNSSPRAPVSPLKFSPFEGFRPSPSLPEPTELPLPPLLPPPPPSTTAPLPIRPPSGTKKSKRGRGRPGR
Procedure: as §1

EphA1(h) = molecular target: T8, EphA1(h) (Homo sapiens, UniProt P21709)
T8 construct: purchased Eurofins Cerep SA (KinaseProfiler)
Procedure: as §1

EphB2(h) = molecular target: T9, EphB2(h) (Homo sapiens, UniProt P29323)
T9 construct: purchased Eurofins Cerep SA (KinaseProfiler)
Procedure: as §1

Rsk1(h) = molecular target: T10, Rsk1(h) (Homo sapiens, UniProt Q15418)
T10 construct: purchased Eurofins Cerep SA (KinaseProfiler)
Procedure: as §1

EphA2(h) = molecular target: T11, EphA2(h) (Homo sapiens, UniProt P29317)
T11 construct: purchased Eurofins Cerep SA (KinaseProfiler)
Procedure: as §1

FAK(h) = molecular target: T12, FAK(h) (Homo sapiens, UniProt Q05397)
T12 construct: purchased Eurofins Cerep SA (KinaseProfiler)
T12 sequence (Q05397 whole entry): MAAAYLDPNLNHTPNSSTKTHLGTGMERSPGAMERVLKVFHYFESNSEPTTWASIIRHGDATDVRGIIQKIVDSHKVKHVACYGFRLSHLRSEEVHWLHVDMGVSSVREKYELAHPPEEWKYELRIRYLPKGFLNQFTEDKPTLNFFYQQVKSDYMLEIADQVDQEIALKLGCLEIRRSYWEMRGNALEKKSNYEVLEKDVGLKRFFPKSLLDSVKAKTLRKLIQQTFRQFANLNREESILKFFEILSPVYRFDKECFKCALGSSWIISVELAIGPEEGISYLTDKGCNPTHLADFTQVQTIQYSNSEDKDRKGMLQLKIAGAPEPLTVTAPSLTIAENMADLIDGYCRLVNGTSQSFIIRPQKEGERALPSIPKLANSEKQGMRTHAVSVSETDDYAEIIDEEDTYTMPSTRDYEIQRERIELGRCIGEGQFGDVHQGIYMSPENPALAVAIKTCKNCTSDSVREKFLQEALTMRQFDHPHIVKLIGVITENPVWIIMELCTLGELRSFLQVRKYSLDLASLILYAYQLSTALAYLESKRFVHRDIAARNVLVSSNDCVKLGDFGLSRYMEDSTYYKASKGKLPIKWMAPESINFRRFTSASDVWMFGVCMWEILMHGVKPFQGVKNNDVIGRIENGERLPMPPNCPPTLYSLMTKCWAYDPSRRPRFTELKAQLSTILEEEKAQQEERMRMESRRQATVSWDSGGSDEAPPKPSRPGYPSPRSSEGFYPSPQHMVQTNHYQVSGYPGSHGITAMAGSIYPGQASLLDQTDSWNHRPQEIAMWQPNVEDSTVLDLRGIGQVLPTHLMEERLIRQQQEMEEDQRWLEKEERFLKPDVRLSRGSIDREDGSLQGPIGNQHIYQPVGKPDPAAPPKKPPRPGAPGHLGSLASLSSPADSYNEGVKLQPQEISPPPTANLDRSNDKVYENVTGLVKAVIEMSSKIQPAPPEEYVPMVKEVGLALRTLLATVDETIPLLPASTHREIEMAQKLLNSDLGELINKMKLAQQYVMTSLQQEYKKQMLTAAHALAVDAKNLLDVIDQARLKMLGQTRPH
Procedure: as §1

ACK1(h) = molecular target: T13, ACK1(h) (Homo sapiens, UniProt Q07912)
T13 construct: purchased Eurofins Cerep SA (KinaseProfiler)
Procedure: as §1

NEK6(h) = molecular target: T14, NEK6(h) (Homo sapiens, UniProt Q9HC98)
T14 construct: purchased Eurofins Cerep SA (KinaseProfiler)
T14 sequence (Q9HC98 whole entry): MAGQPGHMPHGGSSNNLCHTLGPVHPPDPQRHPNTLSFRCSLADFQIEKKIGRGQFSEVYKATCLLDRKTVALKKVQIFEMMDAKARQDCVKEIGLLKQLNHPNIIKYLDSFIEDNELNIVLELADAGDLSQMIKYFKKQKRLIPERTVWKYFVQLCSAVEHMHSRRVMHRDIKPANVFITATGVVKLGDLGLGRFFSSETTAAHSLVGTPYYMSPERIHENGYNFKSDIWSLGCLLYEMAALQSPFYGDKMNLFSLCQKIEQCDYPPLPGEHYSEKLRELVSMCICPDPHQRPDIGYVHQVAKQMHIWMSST
Procedure: as §1

TTBK2(h) = molecular target: T15, TTBK2(h) (Homo sapiens, UniProt Q6IQ55)
T15 construct: purchased Eurofins Cerep SA (KinaseProfiler)
Procedure: as §1

Tec(h) activated = molecular target: T16, Tec(h) activated (Homo sapiens, UniProt P42680)
T16 construct: purchased Eurofins Cerep SA (KinaseProfiler)
Procedure: as §1

LRRK2(h) = molecular target: T17, LRRK2(h) (Homo sapiens, UniProt Q5S007)
T17 construct: purchased Eurofins Cerep SA (KinaseProfiler)
Procedure: as §1

PKA(h) = molecular target: T18, PKA(h) (Homo sapiens, UniProt P17612)
T18 construct: purchased Eurofins Cerep SA (KinaseProfiler)
Procedure: as §1

Syk(h) = molecular target: T19, Syk(h) (Homo sapiens, UniProt P43405)
T19 construct: purchased Eurofins Cerep SA (KinaseProfiler)
Procedure: as §1

IKKε(h) = molecular target: T20, IKKε(h) (Homo sapiens, UniProt Q14164)
T20 construct: purchased Eurofins Cerep SA (KinaseProfiler)
Procedure: as §1

VRK1(h) = molecular target: T21, VRK1(h) (Homo sapiens, UniProt Q99986)
T21 construct: purchased Eurofins Cerep SA (KinaseProfiler)
Procedure: as §1

MST4(h) = molecular target: T22, MST4(h) (Homo sapiens, UniProt Q9P289)
T22 construct: purchased Eurofins Cerep SA (KinaseProfiler)
Procedure: as §1

GAK(h) = molecular target: T23, GAK(h) (Homo sapiens, UniProt O14976)
T23 construct: purchased Eurofins Cerep SA (KinaseProfiler)
Procedure: as §1

IR(h), activated = molecular target: T24, IR(h), activated (Homo sapiens, UniProt P06213)
T24 construct: purchased Eurofins Cerep SA (KinaseProfiler)
Procedure: as §1

BrSK2(h) = molecular target: T25, BrSK2(h) (Homo sapiens, UniProt Q8IWQ3)
T25 construct: purchased Eurofins Cerep SA (KinaseProfiler)
T25 sequence (Q8IWQ3 whole entry): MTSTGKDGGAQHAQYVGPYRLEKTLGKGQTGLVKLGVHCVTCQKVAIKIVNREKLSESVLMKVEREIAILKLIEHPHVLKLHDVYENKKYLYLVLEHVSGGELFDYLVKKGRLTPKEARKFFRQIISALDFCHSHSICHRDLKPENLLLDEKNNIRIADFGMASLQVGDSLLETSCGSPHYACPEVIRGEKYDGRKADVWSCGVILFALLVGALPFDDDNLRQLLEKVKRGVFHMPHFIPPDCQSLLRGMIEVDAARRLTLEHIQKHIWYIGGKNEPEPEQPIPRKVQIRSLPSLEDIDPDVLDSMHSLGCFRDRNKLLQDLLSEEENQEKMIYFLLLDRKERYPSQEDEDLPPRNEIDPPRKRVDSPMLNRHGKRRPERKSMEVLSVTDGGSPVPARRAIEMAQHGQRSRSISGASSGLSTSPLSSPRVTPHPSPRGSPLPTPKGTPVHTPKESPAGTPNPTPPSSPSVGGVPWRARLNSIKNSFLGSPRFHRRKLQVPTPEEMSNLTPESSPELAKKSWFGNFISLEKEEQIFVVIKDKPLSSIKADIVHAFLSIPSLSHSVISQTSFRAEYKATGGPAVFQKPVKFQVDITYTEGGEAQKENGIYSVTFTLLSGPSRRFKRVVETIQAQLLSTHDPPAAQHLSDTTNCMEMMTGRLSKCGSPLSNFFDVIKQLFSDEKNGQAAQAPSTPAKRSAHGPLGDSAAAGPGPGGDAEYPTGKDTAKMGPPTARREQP
Procedure: as §1

EphB3(h) = molecular target: T26, EphB3(h) (Homo sapiens, UniProt P54753)
T26 construct: purchased Eurofins Cerep SA (KinaseProfiler)
Procedure: as §1

DYRK1B(h) = molecular target: T27, DYRK1B(h) (Homo sapiens, UniProt Q9Y463)
T27 construct: purchased Eurofins Cerep SA (KinaseProfiler)
Procedure: as §1

MKK3(h) = molecular target: T28, MKK3(h) (Homo sapiens, UniProt P46734)
T28 construct: purchased Eurofins Cerep SA (KinaseProfiler)
Procedure: as §1

HRI(h) = molecular target: T29, HRI(h) (Homo sapiens, UniProt Q9BQI3)
T29 construct: purchased Eurofins Cerep SA (KinaseProfiler)
Procedure: as §1

mTOR/FKBP12(h) = molecular target: T30, mTOR/FKBP12(h) (Homo sapiens, UniProt P42345)
T30 construct: purchased Eurofins Cerep SA (KinaseProfiler)
Procedure: as §1

SRPK2(h) = molecular target: T31, SRPK2(h) (Homo sapiens, UniProt P78362)
T31 construct: purchased Eurofins Cerep SA (KinaseProfiler)
Procedure: as §1

Mer(h) = molecular target: T32, Mer(h) (Homo sapiens, UniProt Q12866)
T32 construct: purchased Eurofins Cerep SA (KinaseProfiler)
Procedure: as §1

STK16(h) = molecular target: T33, STK16(h) (Homo sapiens, UniProt O75716)
T33 construct: purchased Eurofins Cerep SA (KinaseProfiler)
Procedure: as §1

CLK3(h) = molecular target: T34, CLK3(h) (Homo sapiens, UniProt P49761)
T34 construct: purchased Eurofins Cerep SA (KinaseProfiler)
T34 sequence (P49761 whole entry): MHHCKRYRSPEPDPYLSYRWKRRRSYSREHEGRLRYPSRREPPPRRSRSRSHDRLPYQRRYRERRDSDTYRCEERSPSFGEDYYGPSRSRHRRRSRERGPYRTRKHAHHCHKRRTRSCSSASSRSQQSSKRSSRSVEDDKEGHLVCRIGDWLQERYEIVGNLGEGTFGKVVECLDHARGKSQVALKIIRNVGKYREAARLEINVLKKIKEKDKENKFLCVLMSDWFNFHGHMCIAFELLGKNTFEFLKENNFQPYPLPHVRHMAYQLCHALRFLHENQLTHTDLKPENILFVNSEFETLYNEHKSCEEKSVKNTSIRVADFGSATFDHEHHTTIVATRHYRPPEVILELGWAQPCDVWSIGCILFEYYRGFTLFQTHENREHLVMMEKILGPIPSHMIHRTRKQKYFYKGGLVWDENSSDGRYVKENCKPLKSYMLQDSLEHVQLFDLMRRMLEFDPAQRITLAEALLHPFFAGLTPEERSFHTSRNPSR
Procedure: as §1

Aurora-C(h) = molecular target: T35, Aurora-C(h) (Homo sapiens, UniProt Q9UQB9)
T35 construct: purchased Eurofins Cerep SA (KinaseProfiler)
Procedure: as §1

CDK5/p25(h) = molecular target: T36, CDK5/p25(h) (Homo sapiens, UniProt Q00535)
T36 construct: purchased Eurofins Cerep SA (KinaseProfiler)
Procedure: as §1

IKKβ(h) = molecular target: T37, IKKβ(h) (Homo sapiens, UniProt O14920)
T37 construct: purchased Eurofins Cerep SA (KinaseProfiler)
Procedure: as §1

FGFR4(h) = molecular target: T38, FGFR4(h) (Homo sapiens, UniProt P22455)
T38 construct: purchased Eurofins Cerep SA (KinaseProfiler)
Procedure: as §1

SIK(h) = molecular target: T39, SIK(h) (Homo sapiens, UniProt P57059)
T39 construct: purchased Eurofins Cerep SA (KinaseProfiler)
Procedure: as §1

ARK5(h) = molecular target: T40, ARK5(h) (Homo sapiens, UniProt O60285)
T40 construct: purchased Eurofins Cerep SA (KinaseProfiler)
Procedure: as §1

PKCη(h) = molecular target: T41, PKCη(h) (Homo sapiens, UniProt P24723)
T41 construct: purchased Eurofins Cerep SA (KinaseProfiler)
Procedure: as §1

`CN(C)Cc1cccc(Nc2ncc(Cl)c(-c3csc(C(=O)NN4CCOCC4)c3)n2)c1` [SKLB-D18, 4-(5-chloro-2-((3-((dimethylamino)methyl)phenyl)amino)pyrimidin-4-yl)-N-morpholinothiophene-2-carboxamide] gave an inhibition at 1 µM (SAPK3(h)) of 25%, an inhibition at 1 µM (Rsk4(h)) of 63% and an inhibition at 1 µM (CRIK(h)) of 19%. For the same molecule, the inhibition at 1 µM (HIPK4(h)) was 67%, the inhibition at 1 µM (MLK4(h)) was 24% and the inhibition at 1 µM (PKCε(h)) was 14%. The inhibition at 1 µM (p70S6Kβ(h)) was 15%, the inhibition at 1 µM (EphA1(h)) was 10% and the inhibition at 1 µM (EphB2(h)) was -1%. For the same molecule, the inhibition at 1 µM (Rsk1(h)) was 51%, the inhibition at 1 µM (EphA2(h)) was 17% and the inhibition at 1 µM (FAK(h)) was 17%. It also gave an inhibition at 1 µM (ACK1(h)) of 14%, an inhibition at 1 µM (NEK6(h)) of 0% and an inhibition at 1 µM (TTBK2(h)) of 0%. For the same molecule, the inhibition at 1 µM (Tec(h) activated) was 8%, the inhibition at 1 µM (LRRK2(h)) was 65% and the inhibition at 1 µM (PKA(h)) was 19%. For the same molecule, the inhibition at 1 µM (Syk(h)) was 38%, the inhibition at 1 µM (IKKε(h)) was 64% and the inhibition at 1 µM (VRK1(h)) was 16%. It also gave an inhibition at 1 µM (MST4(h)) of 15%, an inhibition at 1 µM (GAK(h)) of 78% and an inhibition at 1 µM (IR(h), activated) of 13%. The inhibition at 1 µM (BrSK2(h)) was 23%, the inhibition at 1 µM (EphB3(h)) was 3% and the inhibition at 1 µM (DYRK1B(h)) was 67%. For the same molecule, the inhibition at 1 µM (MKK3(h)) was 4%, the inhibition at 1 µM (HRI(h)) was 38% and the inhibition at 1 µM (mTOR/FKBP12(h)) was 8%. The inhibition at 1 µM (SRPK2(h)) was 9%, the inhibition at 1 µM (Mer(h)) was 69% and the inhibition at 1 µM (STK16(h)) was 85%. The inhibition at 1 µM (CLK3(h)) was 11%, the inhibition at 1 µM (Aurora-C(h)) was 66% and the inhibition at 1 µM (CDK5/p25(h)) was 55%. The inhibition at 1 µM (IKKβ(h)) was 53%, the inhibition at 1 µM (FGFR4(h)) was 8% and the inhibition at 1 µM (SIK(h)) was 26%. It also gave an inhibition at 1 µM (ARK5(h)) of 72% and an inhibition at 1 µM (PKCη(h)) of 16%.
